In assay [1] the target is T1, D-2 dopamine receptor (Rattus norvegicus, UniProt P61169).
T1 construct: from tissue; host or cells: homogenized limbic brain tissue
The assay is described as follows: [^3 H] Spiroperidol binding inhibition (D-2 dopamine receptor, homogenized limbic brain tissue). From the text: The results of this testing with compounds representative of the invention whose production is exemplified, infra, are as follows: […]

Assay [2] deals with conditioned avoidance responding. Nature of the assay: Conditioned avoidance, shelf-jump response. The format is in vivo, rat (male CD, Charles River). The conditions noted are these: Rattus norvegicus, ip; single dose 40 mg/kg. The source says: (§1) The antipsychotic properties of the compounds of this invention were established by standard pharmacologically accepted procedures involving conditioned avoidance studies in which trained male CD rats (Charles River), 400-450 g. body weight are exposed to a fifteen second warning tone (conditioned stimulus) continued for an additional fifteen seconds accompanied by electric shock. The rat can avoid the electric shock by jumping to an exposed shelf (shelf-jump response). A response during the initial warning tone is considered an avoidance response, while a response during shock delivery is considered as escape response. The shelf-jump response test procedure follows that of Herman et al., Comm. in Psychopharm., 3, pp. 165-171 (1979). The compounds of this invention were tested at a single dose (40 mg./kg. i.p.) in this procedure and were rated relative to their inhibition of conditioned avoidance responding. A similar test procedure (Discrete Trial) in which a lever press was substituted for a shelf-jump was used to establish the oral (p.o.) activity of the test compounds. Orally active compounds were tested over a full dose range and the Avoidance Block activities reported as "AB50 's" (mg./kg.).

Assay [3] addresses T2, 5-HT1A serotonin receptor (Rattus norvegicus, UniProt P19327).
T2 construct: from tissue
T2 sequence (P19327 1-422): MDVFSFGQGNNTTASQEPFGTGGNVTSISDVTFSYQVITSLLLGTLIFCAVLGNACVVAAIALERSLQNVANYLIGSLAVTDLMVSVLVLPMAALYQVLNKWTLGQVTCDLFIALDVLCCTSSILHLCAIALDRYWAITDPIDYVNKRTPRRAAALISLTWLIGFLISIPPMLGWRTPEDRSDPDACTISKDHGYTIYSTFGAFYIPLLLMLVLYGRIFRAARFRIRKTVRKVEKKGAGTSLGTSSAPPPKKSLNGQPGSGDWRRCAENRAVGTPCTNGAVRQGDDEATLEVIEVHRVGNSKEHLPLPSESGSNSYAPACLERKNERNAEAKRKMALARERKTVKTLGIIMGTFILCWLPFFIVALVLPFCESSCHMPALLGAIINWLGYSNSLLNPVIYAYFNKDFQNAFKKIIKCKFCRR
The assay is described as follows: Inhibition of [^3 H] 8-OH DPAT binding.
Text: 8-OH DPAT (dipropylaminotetralin) from the 5-HT1A serotonin receptor by the procedure of Hall et al., J. Neurochem.

Assay [4] concerns apomorphine-induced stereotyped behavior and climbing. The assay is described as follows: Antagonism of apomorphine-induced stereotyped behavior and climbing. The format is in vivo, mouse (CF-1, Charles River). The conditions noted are these: for ED50: Mus musculus, po; for Ratio of ED50 for stereotyped behavior to ED50 for climbing: standard antipsychotic drugs, high ratio = low extrapyramidal liability. As for the experimental part:
Readings are repeated every five minutes during a thirty minute test session. […] The ratio of the ED50 for stereotyped behavior of the ED50 for climbing is calculated.

The subject of assay [5] is conditioned avoidance responding. Nature of the assay: Conditioned avoidance, Discrete Trial (lever press). The format is in vivo, rat (male CD, Charles River). The conditions noted are these: for Conditioned Avoidance, Discrete Trial AB50: p.o.; for ED50: Rattus norvegicus, po, read-out: Conditioned Avoidance, Discrete Trial AB50.
Text: as §1

Setting [6] is: apomorphine 1 mg/kg s.c., read-out: Apomorphine Antagonism, Climbing ED50.
Where [7] appears, read: apomorphine 1 mg/kg s.c., read-out: Apomorphine Antagonism, Stereotypy ED50.

From patent US4748240A, “Psychotropic bicyclic imides” (American Home Products Corporation, priority 1987, dated 1988) come the findings set out here.

Read-outs that look alike come from different tables or passages of the source.

T1 sequence (P61169 whole entry): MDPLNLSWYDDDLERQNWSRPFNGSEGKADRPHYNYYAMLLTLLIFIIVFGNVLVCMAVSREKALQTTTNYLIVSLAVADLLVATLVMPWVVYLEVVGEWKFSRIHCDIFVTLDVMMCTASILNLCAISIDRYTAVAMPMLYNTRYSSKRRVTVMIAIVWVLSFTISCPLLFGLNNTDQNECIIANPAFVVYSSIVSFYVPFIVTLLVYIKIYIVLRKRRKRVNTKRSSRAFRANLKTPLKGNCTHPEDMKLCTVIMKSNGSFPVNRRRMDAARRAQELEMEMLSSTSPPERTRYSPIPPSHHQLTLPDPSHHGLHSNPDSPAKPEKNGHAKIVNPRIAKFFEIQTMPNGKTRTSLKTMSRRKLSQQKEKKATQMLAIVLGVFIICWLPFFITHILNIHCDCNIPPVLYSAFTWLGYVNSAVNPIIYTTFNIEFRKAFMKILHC

In turn, `O=C1C2CCC(O2)C(=O)N1CCCCN1CCN(c2ncccn2)CC1` [Example 3, 3-[4-[4-(2-Pyrimidinyl)-1-piperazinyl]butyl]-8-oxa-3-azabicyclo[3.2.1]octane-2,4-dione] returned an inhibition at 1 µM in assay [1] of 44%. Also, in assay [2], the inhibition in vivo at 40 mg/kg is ~80%. In assay [3], the Ki is 31 nM. For the same compound, the “Apomorphine Antagonism, Stereotypy ED50” value in assay [4] (p.o., apomorphine 1 mg/kg s.c.) was “inactive”. Moreover, the “Conditioned Avoidance, Discrete Trial AB50” value (from here on “Conditioned Avoidance”) in assay [5] is reported as “weak”.

Turning to `O=C1C2CCCC(C2)C(=O)N1CCCCN1CCN(c2cncc(Cl)n2)CC1` [Example 7, 2-[4-[4-(6-Chloro-2-pyrazinyl)-1-piperazinyl]butyl]-3-azabicyclo[3.3.1]nonane-2,4-dione], the inhibition at 1 µM in assay [1] was found to be 21%. Moreover, the inhibition in vivo at 40 mg/kg in assay [2] was ~80%. In assay [3], this compound showed an inhibition constant (Ki) of 31 nM. For the same compound, in assay [4] (p.o., apomorphine 1 mg/kg s.c.), the “Apomorphine Antagonism, Stereotypy ED50” value was “inactive”. For the same compound, the ED50 in assay [5] is 34.1 mg/kg.

`O=C1C2CCCC(C(=O)N1CCCCN1CCN(c3ncccn3)CC1)[S+]2[O-]` (centres unmarked) [Example 6, 3-[4-[4-(2-Pyrimidinyl)-1-piperazinyl]butyl]-9-thia-3-azabicyclo[3.3.1]nonane-2,4-dione-9-oxide] registered an inhibition at 1 µM in assay [1] of 14%. The inhibition in vivo at 40 mg/kg in assay [2] is > 20%. In assay [3], this compound returned a Ki of 90 nM. In assay [4] (p.o., apomorphine 1 mg/kg s.c.), the “Apomorphine Antagonism, Climbing ED50” value is “inactive” and the “Apomorphine Antagonism, Stereotypy ED50” value was “inactive”. Besides, the “Conditioned Avoidance” value in assay [5] is “inactive”.

As for `O=C1CC2(CCCC2)CC(=O)N1CCCCN1CCN(c2ncccn2)CC1` [buspirone, reference compound], the “Affinity for the 5-HT1A serotonin receptor (in words)” value in assay [3] was “potent affinity”.

Consider `O=C1C2CCCC(O2)C(=O)N1CCCCN1CCN(c2cccc(C(F)(F)F)c2)CC1` [Example 19, 3-[4-[4-[3-(Trifluoromethyl)phenyl]-1-piperazinyl]butyl]-9-oxa-3-azabicyclo[3.3.1]nonane-2,4-dione], for which, in assay [1], testing at 1 µM gave an inhibition of 97%. Also, the inhibition in vivo at 40 mg/kg in assay [2] is ~80%. In assay [3], this compound returned a Ki of 15 nM. Besides, the ED50 turned out to be 9.06 mg/kg in assay [4] (setting [6]), 31 mg/kg in assay [4] (setting [7]) and 27 mg/kg in assay [5].

Compound `O=C1C2CCC(C2)C(=O)N1CCCN1CCN(c2cccc(C(F)(F)F)c2)CC1` [Example 22, 3-[3-[4-[3-(Trifluoromethyl)phenyl]-1-piperazinyl]propyl]-3-azabicyclo[3.2.1]octane-2,4-dione] gave an inhibition at 1 µM in assay [1] of 38%. Besides, the inhibition in vivo at 40 mg/kg in assay [2] is ~80%. Affinity in assay [3] was put at a Ki of 4 nM. Moreover, the ED50 in assay [4] (setting [6]) was 29.5 mg/kg; in assay [4] (setting [7]), 43.3 mg/kg. In addition, in assay [5], the “Conditioned Avoidance” value was “weak”.

Turning to `CC1(C)C2CCC1C(=O)N(CCCCN1CCN(c3cncc(Cl)n3)CC1)C2=O` [Example 18, 3-[4-[4-(6-Chloro-2-pyrazinyl)-1-piperazinyl]butyl]-8,8-dimethyl-3-azabicyclo[3.2.1]octane-2,4-dione], the inhibition at 1 µM is 21% in assay [1] and 76% in assay [3]. Also, the inhibition in vivo at 40 mg/kg in assay [2] was > 20%. Besides, the ED50 in assay [4] (setting [6]) stood at 43 mg/kg. The “Apomorphine Antagonism, Stereotypy ED50” value in assay [4] (p.o., apomorphine 1 mg/kg s.c.) was “inactive”. Further, the “Conditioned Avoidance” value in assay [5] was “inactive”.

For `O=C1C2CCCC(O2)C(=O)N1CCCCN1CCN(c2ncccn2)CC1` [Example 13, 3-[4-[4-(2-Pyrimidinyl)-1-piperazinyl]butyl]-9-oxa-3-azabicyclo[3.3.1]nonane-2,4-dione], in assay [1], the inhibition at 1 µM came out at 17%. Also, the inhibition in vivo at 40 mg/kg in assay [2] was ~80%. Also, affinity in assay [3] was put at a Ki of 122 nM. Further, the ED50 in assay [4] (setting [6]) was determined as 0.24 mg/kg; in assay [5], 86.2 mg/kg. Further, the “Apomorphine Antagonism, Stereotypy ED50” value in assay [4] (p.o., apomorphine 1 mg/kg s.c.) was “inactive”.

`O=C1C2CCCC(C2)C(=O)N1CCCCN1CCN(c2cnccn2)CC1` [Example 16, 3-[4-[4-(2-Pyrazinyl)-1-piperazinyl]butyl]-3-azabicyclo[3.3.1]nonane-2,4-dione] yielded an inhibition at 1 µM in assay [1] of 12%. Moreover, the inhibition in vivo at 40 mg/kg in assay [2] was ~80%. Also, in assay [3], the Ki is 129 nM. For the same compound, the ED50 in assay [4] (setting [6]) was 9.17 mg/kg; in assay [4] (setting [7]), 54.1 mg/kg. In addition, the “Conditioned Avoidance” value in assay [5] is “inactive”.

Consider `O=C1C2CCC(C2)C(=O)N1CCCCN1CCN(c2cccc(Cl)c2)CC1` [Example 11, 3-[4-[4-(3-Chlorophenyl)-1-piperazinyl]butyl]-3-azabicyclo[3.2.1]octane-2,4-dione], for which the results for the Ki in assay [1] and in assay [3] were 130 nM and 3.89 nM, respectively. Moreover, the inhibition in vivo at 40 mg/kg in assay [2] was ~80%. The ED50 amounted to 0.79 mg/kg in assay [4] (setting [6]), 2.2 mg/kg in assay [4] (setting [7]) and 27.1 mg/kg in assay [5].

On to `O=C1C2CCCC(O2)C(=O)N1CCCCN1CCN(c2cncc(Cl)n2)CC1` [Example 15, 3-[4-[4-(6-Chloro-2-pyrazinyl)-1-piperazinyl]butyl]-9-oxa-3-azabicyclo[3.3.1]nonane-2,4-dione], for which the inhibition at 1 µM worked out at 21% in assay [1] and 63% in assay [3]. Besides, in assay [2], the inhibition in vivo at 40 mg/kg was ~80%. Besides, the “Apomorphine Antagonism, Stereotypy ED50” value in assay [4] (p.o., apomorphine 1 mg/kg s.c.) is “inactive”. Also, the “Conditioned Avoidance” value in assay [5] was “weak”.

Consider `O=C1C2CCC(C2)C(=O)N1CCCCN1CCN(c2cncc(Cl)n2)CC1` [Example 8, 3-[4-[4-(6-Chloro-2-pyrazinyl)-1-piperazinyl]butyl]-3-azabicyclo[3.2.1]octane-2,4-dione], for which the inhibition at 1 µM in assay [1] was found to be 12%; in assay [3], 68%. Besides, in assay [2], the inhibition in vivo at 40 mg/kg was ~80%. Also, the ED50 came to 15.7 mg/kg in assay [4] (setting [6]) and 33.6 mg/kg in assay [5]. Also, in assay [4] (p.o., apomorphine 1 mg/kg s.c.), the “Apomorphine Antagonism, Stereotypy ED50” value is “inactive”.

For the compound `O=C1C2CCC(O2)C(=O)N1CCCCN1CCN(c2cncc(Cl)n2)CC1` [Example 12, 3-[4-[4-(6-Chloro-2-pyrazinyl)-1-piperazinyl]butyl]-8-oxa-3-azabicyclo[3.2.1]octane-2,4-dione], the inhibition at 1 µM in assay [1] stood at 7%; in assay [3] it was 54%. For the same compound, the inhibition in vivo at 40 mg/kg in assay [2] was > 20%. For the same compound, in assay [4] (setting [6]), the ED50 amounted to 51.6 mg/kg. Moreover, the “Apomorphine Antagonism, Stereotypy ED50” value in assay [4] (p.o., apomorphine 1 mg/kg s.c.) was “inactive”. Further, the “Conditioned Avoidance” value in assay [5] is on record as “weak”.

Consider `O=C1C2CCC(C2)C(=O)N1CCCCN1CCN(c2cccc(C(F)(F)F)c2)CC1` [Example 10, 3-[4-[4-[3-(Trifluoromethyl)phenyl]-1-piperazinyl]butyl]-3-azabicyclo[3.2.1]octane-2,4-dione], for which the Ki in assay [1] was 80 nM; in assay [3], 3.61 nM. Further, in assay [2], the inhibition in vivo at 40 mg/kg is ~80%. The ED50 in assay [4] (setting [6]) amounted to 1.05 mg/kg; in assay [4] (setting [7]) it was 4.98 mg/kg; in assay [5], 7.03 mg/kg.

Compound `O=C1C2CCC(S2)C(=O)N1CCCCN1CCN(c2ncccn2)CC1` [Example 4, 3-[4-[4-(2-Pyrimidinyl)-1-piperazinyl]butyl]-8-thia-3-azabicyclo[3.2.1]octane-2,4-dione] gave an inhibition at 1 µM in assay [1] of 12%. In addition, the inhibition in vivo at 40 mg/kg in assay [2] is > 20%. Further, the inhibitory constant (Ki) in assay [3] worked out at 46 nM. Moreover, the ED50 in assay [4] (setting [6]) was 53.3 mg/kg. Besides, in assay [4] (p.o., apomorphine 1 mg/kg s.c.), the “Apomorphine Antagonism, Stereotypy ED50” value was “inactive”. In assay [5], the “Conditioned Avoidance” value is “inactive”.

In assay [1], `O=C1C2CCCC(S2)C(=O)N1CCCCN1CCN(c2cncc(Cl)n2)CC1` [Example 14, 3-[4-[4-(6-Chloro-2-pyrazinyl)-1-piperazinyl]butyl]-9-thia-3-azabicyclo[3.3.1]nonane-2,4-dione] registered an inhibition at 1 µM of 34%. For the same compound, the inhibition in vivo at 40 mg/kg in assay [2] is > 20%. The compound further yielded a Ki in assay [3] of 35.2 nM. For the same compound, the “Apomorphine Antagonism, Stereotypy ED50” value in assay [4] (p.o., apomorphine 1 mg/kg s.c.) was “inactive”. Besides, the ED50 in assay [5] turned out to be 35.6 mg/kg.

Turning to `CN(C)CCCN1c2ccccc2Sc2ccc(Cl)cc21` [chlorpromazine, reference compound], the “Ratio of ED50 for stereotyped behavior to ED50 for climbing” value in assay [4] is 1.51.

Regarding `O=C(CCCN1CCC(O)(c2ccc(Cl)cc2)CC1)c1ccc(F)cc1` [haloperidol, reference compound], the “Ratio of ED50 for stereotyped behavior to ED50 for climbing” value in assay [4] came to 1.00.
